Starred links: 1 amine or outer side, 2 acyl side, 3 side chain; linkers in the order of their positions; H or OH if unused. Positions of bridges follow the written chain, without caps; N, C: chain ends. Non-standard residues stand in square brackets, D forms with d. Residues, ends and D or L forms follow the SMILES beside them. *: point of attachment. Ala(piperidin-4-yl) = O=C([C@H](CC1CCN([*:3])CC1)N[*:1])[*:2]; DOTA = O=C(O)CN1CCN(CC(=O)O)CCN(CC(=O)*)CCN(CC(=O)O)CC1; Trp(5-F) = N[C@@H](Cc1c[nH]c2ccc(F)cc12)C(=O)O; Trp(7-aza) = N[C@@H](Cc1c[nH]c2ncccc12)C(=O)O; Trp(1-Me) = Cn1cc(C[C@H](N)C(=O)O)c2ccccc21; Tyr(3-F) = N[C@@H](Cc1ccc(O)c(F)c1)C(=O)O; Ala(4-THP) = N[C@@H](CC1CCOCC1)C(=O)O; hLeu(5-Me) = CC(C)(C)CC[C@H](N)C(=O)O; Phe(2-Me) = Cc1ccccc1C[C@H](N)C(=O)O; Val(3-OH) = CC(C)(O)[C@H](N)C(=O)O; X14 = CC(C)CC[C@H](NC(N)=O)C(=O)*; Tle = CC(C)(C)[C@H](N)C(=O)O; hLeu = CC(C)CC[C@H](N)C(=O)O; Nle = CCCC[C@H](N)C(=O)O; Orn = NCCC[C@H](N)C(=O)O; Sar = CNCC(=O)O
These compounds were tested against T1, human 4lg B7-H3 (Homo sapiens, UniProt Q5ZPR3) (assay: Affinity determination by surface plasmon resonance (SPR) to 4Ig B7-H3). Settings: SPR KD—25° C., 4Ig B7-H3; 25° C. flow cell temperature.
T1 sequence (Q5ZPR3 29-534): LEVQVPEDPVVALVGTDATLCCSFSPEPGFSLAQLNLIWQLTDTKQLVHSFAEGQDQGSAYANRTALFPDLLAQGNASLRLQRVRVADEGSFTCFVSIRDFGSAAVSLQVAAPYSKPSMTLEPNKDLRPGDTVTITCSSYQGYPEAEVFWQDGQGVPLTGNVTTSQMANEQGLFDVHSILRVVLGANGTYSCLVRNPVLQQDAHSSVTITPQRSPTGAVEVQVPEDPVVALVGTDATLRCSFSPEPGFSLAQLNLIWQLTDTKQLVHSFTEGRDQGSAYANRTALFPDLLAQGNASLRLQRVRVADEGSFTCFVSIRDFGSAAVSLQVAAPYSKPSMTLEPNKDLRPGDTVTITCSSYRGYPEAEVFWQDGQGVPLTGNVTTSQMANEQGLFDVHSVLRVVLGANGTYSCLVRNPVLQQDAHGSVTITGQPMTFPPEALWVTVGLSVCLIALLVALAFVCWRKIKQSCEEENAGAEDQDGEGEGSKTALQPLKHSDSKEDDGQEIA

SMILES	Kd [µM]
CC(=O)N[C@@H](CCC(C)C)C(=O)N[C@@H](Cc1ccc(O)cc1)C(=O)N[C@H]1CSSC[C@@H](C(=O)N[C@@H](Cc2c[nH]c3ccccc23)C(=O)N[C@@H](Cc2ccccc2)C(=O)N[C@H](C(=O)N[C@H](CCCCNC(=O)CN2CCN(CC(=O)O)CCN(CC(=O)O)CCN(CC(=O)O)CC2)C(N)=O)[C@@H](C)O)NC(=O)[C@H](Cc2ccc(O)c(F)c2)NC(=O)[C@H](C(C)C)NC(=O)[C@H](CC(=O)O)NC(=O)[C@H](Cc2ccc(O)cc2)NC(=O)[C@H](CCCCN)NC(=O)CNC(=O)[C@H](C(C)C)NC1=O [compound 151, Ac-hLeu-Y-C-V-G-K-Y-D-V-3FY-C-W-F-Thr-dLys(DOTA)-CONH2] (Ac-[hLeu]YCVGKYDV[Tyr(3-F)]CWFT[dK](DOTA)-NH2; disulfide 3-11)	0.001 to 0.01
CCCC[C@H](NC(C)=O)C(=O)N[C@@H](Cc1ccc(O)cc1)C(=O)N[C@H]1CSSC[C@@H](C(=O)N[C@@H](Cc2c[nH]c3ccccc23)C(=O)N[C@@H](Cc2ccccc2)C(=O)N[C@H](C(=O)N[C@H](CCCCNC(=O)CN2CCN(CC(=O)O)CCN(CC(=O)O)CCN(CC(=O)O)CC2)C(N)=O)[C@@H](C)O)NC(=O)[C@H](Cc2ccc(O)cc2)NC(=O)[C@H](C(C)C)NC(=O)[C@H](CC(=O)O)NC(=O)[C@H](Cc2ccc(O)cc2)NC(=O)[C@H](CCCN)NC(=O)CNC(=O)[C@H](C(C)C)NC1=O [compound 63, Ac-Nle-Y-C-V-G-Orn-Y-D-V-Y-C-W-F-Thr-dLys(DOTA)-CONH2] (Ac-[Nle]YCVG[Orn]YDVYCWFT[dK](DOTA)-NH2; disulfide 3-11)	0.001 to 0.01
CC(=O)N[C@@H](CCC(C)C)C(=O)N[C@@H](Cc1ccc(O)cc1)C(=O)N[C@H]1CSSC[C@@H](C(=O)N[C@@H](Cc2c[nH]c3ncccc23)C(=O)N[C@@H](Cc2ccccc2)C(=O)N[C@H](C(=O)N[C@H](CCCCNC(=O)CN2CCN(CC(=O)O)CCN(CC(=O)O)CCN(CC(=O)O)CC2)C(N)=O)[C@@H](C)O)NC(=O)[C@H](Cc2ccc(O)cc2)NC(=O)[C@H](C(C)C)NC(=O)[C@H](CC(=O)O)NC(=O)[C@H](Cc2ccc(O)cc2)NC(=O)[C@H](CCCCN)NC(=O)CNC(=O)[C@H](C(C)C)NC1=O [compound 156, Ac-hLeu-Y-C-V-G-K-Y-D-V-Y-C-7NW-F-Thr-dLys(DOTA)-CONH2] (Ac-[hLeu]YCVGKYDVYC[Trp(7-aza)]FT[dK](DOTA)-NH2; disulfide 3-11)	0.01 to 0.1
CC(=O)N[C@@H](CCC(C)C)C(=O)N[C@@H](Cc1ccc(O)cc1)C(=O)N[C@H]1CSSC[C@@H](C(=O)N[C@@H](Cc2c[nH]c3ccc(F)cc23)C(=O)N[C@@H](Cc2ccccc2)C(=O)N[C@H](C(=O)N[C@H](CCCCNC(=O)CN2CCN(CC(=O)O)CCN(CC(=O)O)CCN(CC(=O)O)CC2)C(=O)O)[C@@H](C)O)NC(=O)[C@H](Cc2ccc(O)cc2)NC(=O)[C@H](C(C)C)NC(=O)[C@H](CC(=O)O)NC(=O)[C@H](CC2CCOCC2)NC(=O)[C@H](CCCCN)NC(=O)CN(C)C(=O)[C@H](C(C)C)NC1=O [compound 362, Ac-hLeu-Y-C-V-Sar-K-ThpA-D-V-Y-C-5FW-F-Thr-dLys(DOTA)-COOH] (Ac-[hLeu]YCV[Sar]K[Ala(4-THP)]DVYC[Trp(5-F)]FT[dK](DOTA)-OH; disulfide 3-11)	< 0.001
CC(=O)N[C@@H](CCC(C)C)C(=O)N[C@@H](Cc1ccc(O)cc1)C(=O)N[C@H]1CSSC[C@@H](C(=O)N[C@@H](Cc2c[nH]c3ccccc23)C(=O)N[C@@H](Cc2ccccc2)C(=O)N[C@H](C(=O)N[C@H](CCCCNC(=O)CN2CCN(CC(=O)O)CCN(CC(=O)O)CCN(CC(=O)O)CC2)C(N)=O)[C@@H](C)O)NC(=O)[C@H](Cc2ccc(O)cc2)NC(=O)[C@H](C(C)(C)O)NC(=O)[C@H](CC(=O)O)NC(=O)[C@H](Cc2ccc(O)cc2)NC(=O)[C@H](CCCCN)NC(=O)CNC(=O)[C@H](C(C)C)NC1=O [compound 127, Ac-hLeu-Y-C-V-G-K-Y-D-hydroVal-Y-C-W-F-Thr-dLys(DOTA)-CONH2] (Ac-[hLeu]YCVGKYD[Val(3-OH)]YCWFT[dK](DOTA)-NH2; disulfide 3-11)	0.1 to 0.3

Same assay, conditions: SPR KD—37° C., 4Ig B7-H3; 37° C. flow cell temperature

SMILES	Kd [µM]
CC(=O)N[C@@H](CCC(C)C)C(=O)N[C@@H](Cc1ccc(O)cc1)C(=O)N[C@H]1CSSC[C@@H](C(=O)N[C@@H](Cc2cn(C)c3ccccc23)C(=O)N[C@@H](Cc2ccccc2)C(=O)N[C@H](C(=O)N[C@H](CCCCNC(=O)CN2CCN(CC(=O)O)CCN(CC(=O)O)CCN(CC(=O)O)CC2)C(=O)O)C(C)(C)O)NC(=O)[C@H](Cc2ccc(O)cc2)NC(=O)[C@H](C(C)C)NC(=O)[C@H](CC(=O)O)NC(=O)[C@H](CC2CCOCC2)NC(=O)[C@H](CC2CCNCC2)NC(=O)CNC(=O)[C@H](C(C)(C)C)NC1=O [compound 462, Ac-hLeu-Y-C-Tbg-G-PipAla-ThpA-D-V-Y-C-Trp(Me)-F-hydroxyVal-dLys(DOTA)-COOH] (Ac-[hLeu]YC[Tle]G[Ala(piperidin-4-yl)][Ala(4-THP)]DVYC[Trp(1-Me)]F[Val(3-OH)][dK](DOTA)-OH; disulfide 3-11)	< 0.001
CC(C)CC[C@H](NC(N)=O)C(=O)N[C@@H](Cc1ccc(O)cc1)C(=O)N[C@H]1CSSC[C@@H](C(=O)N[C@@H](Cc2c[nH]c3ccc(F)cc23)C(=O)N[C@@H](Cc2ccccc2)C(=O)N[C@H](C(=O)N[C@H](CCCCNC(=O)CN2CCN(CC(=O)O)CCN(CC(=O)O)CCN(CC(=O)O)CC2)C(=O)O)C(C)(C)O)NC(=O)[C@H](Cc2ccc(O)cc2)NC(=O)[C@H](C(C)C)NC(=O)[C@H](CC(=O)O)NC(=O)[C@H](CC2CCOCC2)NC(=O)[C@H](CC2CCNCC2)NC(=O)CNC(=O)[C@H](C(C)(C)C)NC1=O [Cpd #468, urea-hLeu-Y-C-Tbg-G-PipAla-ThpA-D-V-Y-C-5FW-F-hydroxyVal-dLys(DOTA)-COOH] (X14-YC[Tle]G[Ala(piperidin-4-yl)][Ala(4-THP)]DVYC[Trp(5-F)]F[Val(3-OH)][dK](DOTA)-OH; disulfide 2-10)	< 0.001
CC(=O)N[C@@H](CCC(C)C)C(=O)N[C@@H](Cc1ccc(O)cc1)C(=O)N[C@H]1CSSC[C@@H](C(=O)N[C@@H](Cc2c[nH]c3ccc(F)cc23)C(=O)N[C@@H](Cc2ccccc2C)C(=O)N[C@H](C(=O)N[C@H](CCCCNC(=O)CN2CCN(CC(=O)O)CCN(CC(=O)O)CCN(CC(=O)O)CC2)C(=O)O)C(C)(C)O)NC(=O)[C@H](Cc2ccc(O)cc2)NC(=O)[C@H](C(C)C)NC(=O)[C@H](CC(=O)O)NC(=O)[C@H](CC2CCOCC2)NC(=O)[C@H](CC2CCNCC2)NC(=O)CNC(=O)[C@H](C(C)(C)C)NC1=O [compound 456, Ac-hLeu-Y-C-Tbg-G-PipAla-ThpA-D-V-Y-C-5FW-2MePhe-hydroxyVal-dLys(DOTA)-COOH] (Ac-[hLeu]YC[Tle]G[Ala(piperidin-4-yl)][Ala(4-THP)]DVYC[Trp(5-F)][Phe(2-Me)][Val(3-OH)][dK](DOTA)-OH; disulfide 3-11)	< 0.001
CC(=O)N[C@@H](CCC(C)(C)C)C(=O)N[C@@H](Cc1ccc(O)cc1)C(=O)N[C@H]1CSSC[C@@H](C(=O)N[C@@H](Cc2c[nH]c3ccc(F)cc23)C(=O)N[C@@H](Cc2ccccc2)C(=O)N[C@H](C(=O)N[C@H](CCCCNC(=O)CN2CCN(CC(=O)O)CCN(CC(=O)O)CCN(CC(=O)O)CC2)C(=O)O)C(C)(C)O)NC(=O)[C@H](Cc2ccc(O)cc2)NC(=O)[C@H](C(C)C)NC(=O)[C@H](CC(=O)O)NC(=O)[C@H](CC2CCOCC2)NC(=O)[C@H](CCCCN)NC(=O)CNC(=O)[C@H](C(C)(C)C)NC1=O [compound 397, Ac-hTba-Y-C-Tbg-G-K-ThpA-D-V-Y-C-5FW-F-hydroxyVal-dLys(DOTA)-COOH] (Ac-[hLeu(5-Me)]YC[Tle]GK[Ala(4-THP)]DVYC[Trp(5-F)]F[Val(3-OH)][dK](DOTA)-OH; disulfide 3-11)	0.01 to 0.1

Source: patent US20250296959A1, “B7-H3 TARGETING PEPTIDES AND CONSTRUCTS THEREOF” (Mariana Oncology Inc., priority 2024, published 2025)
